Structures are written as SMILES.

`CC1(C)COCN1` [4,4-dimethyl-1,3-oxazolidine] returned a flash point of 49.00 °C.

`COc1cc(-c2ccc(N)c(OC)c2)ccc1N` [4-(4-amino-3-methoxyphenyl)-2-methoxyaniline] gave a flash point of 206.00 °C.

With `Nc1ccc(Oc2ccc(N)cc2)cc1` [4-(4-aminophenoxy)aniline], the flash point was 219.00 °C.

Compound `Nc1ccc(Cc2ccc(N)cc2)cc1` [4-[(4-aminophenyl)methyl]aniline] returned a flash point of 221.00 °C.

`Nc1ccc(O)cc1` [4-aminophenol] came in with a flash point of 195.00 °C.

`O=Cc1ccc(Cl)cc1` [4-chlorobenzaldehyde] returned a flash point of 88.00 °C.

For `O=C(Nc1cccc(Cl)c1)OCC#CCCl` [4-chlorobut-2-ynyl N-(3-chlorophenyl)carbamate], the flash point turned out to be 50.00 °C.

The compound `Oc1ccc(Cl)cc1` [4-chlorophenol] displayed a flash point of 121.00 °C.

In turn, `COP(=S)(OC)Oc1ccc(C#N)cc1` [4-dimethoxyphosphinothioyloxybenzonitrile] gave a flash point of 104.00 °C.

With `CCOc1ccc(N)cc1` [4-ethoxyaniline], the flash point stood at 116.00 °C.

The compound `CCc1ccc(O)cc1` [4-ethylphenol] yielded a flash point of 104.00 °C.

`Nc1ccc(F)cc1` [4-fluoroaniline] returned a flash point of 74.00 °C.

For the compound `CC(=O)CC(C)(C)O` [4-hydroxy-4-methylpentan-2-one], the flash point amounted to 52.00 °C.

In the case of `COC(C)(C)CC(C)=O` [4-methoxy-4-methylpentan-2-one], the flash point was 61.00 °C.

`COc1ccc(C=O)cc1` [4-methoxybenzaldehyde] registered a flash point of 116.00 °C.

Compound `CC1=CCC(O)(C(C)C)CC1` (configuration not stated) [4-methyl-1-propan-2-ylcyclohex-3-en-1-ol] gave a flash point of 79.00 °C.

Turning to `Cc1ccc(N)cc1N` [4-methylbenzene-1,3-diamine], the flash point was found to be 149.00 °C.

`Cc1ccc(S(N)(=O)=O)cc1` [4-methylbenzenesulfonamide] yielded a flash point of 202.00 °C.

As for `Cc1ccc(S(=O)(=O)O)cc1` [4-methylbenzenesulfonic acid], the flash point stood at 184.00 °C.

Compound `Cc1ccc(S(=O)(=O)Cl)cc1` [4-methylbenzenesulfonyl chloride] had a flash point of 128.00 °C.

The compound `CN1CCOCC1` [4-methylmorpholine] gave a flash point of 24.00 °C.

For `CC1CC(=O)O1` (configuration not stated) [4-methyloxetan-2-one], the flash point stood at 60.00 °C.

With `C=CCC(C)C` [4-methylpent-1-ene], the flash point was -32.00 °C.

As to `CC(C)CC(C)N` (configuration not stated) [4-methylpentan-2-amine], the flash point worked out at 13.00 °C.

In the case of `CC(=O)OC(C)CC(C)C` (configuration not stated) [4-methylpentan-2-yl acetate], the flash point was 45.00 °C.

Compound `Cc1ccc(O)cc1` [4-methylphenol] had a flash point of 86.00 °C.

Regarding `Cc1ccncc1` [4-methylpyridine], the flash point amounted to 57.00 °C.

On to `O=[N+]([O-])c1ccc(Nc2ccccc2)cc1` [4-nitro-N-phenylaniline], for which the flash point was 190.00 °C.

With `Nc1ccc([N+](=O)[O-])cc1` [4-nitroaniline], the flash point came to 199.00 °C.

In turn, `O=C(O)c1ccc([N+](=O)[O-])cc1` [4-nitrobenzoic acid] showed a flash point of 202.00 °C.

The compound `O=[N+]([O-])c1ccc(O)cc1` [4-nitrophenol] displayed a flash point of 192.00 °C.

Regarding `CCCCCCCCCc1ccc(O)cc1` [4-nonylphenol], the flash point came out at 113.00 °C.

As for `CCCCCCCCc1ccc(Nc2ccc(CCCCCCCC)cc2)cc1` [4-octyl-N-(4-octylphenyl)aniline], the flash point worked out at 213.00 °C.

The compound `Oc1ccc(-c2ccccc2)cc1` [4-phenylphenol] yielded a flash point of 166.00 °C.

Compound `CC(C)(C)c1ccc(O)cc1` [4-tert-butylphenol] came in with a flash point of 113.00 °C.

As to `CCCCOCCOCCOCc1cc2c(cc1CCC)OCO2` [5-[2-(2-butoxyethoxy)ethoxymethyl]-6-propyl-1,3-benzodioxole], the flash point was found to be 171.00 °C.

The compound `C=Cc1ccc(C)nc1` [5-ethenyl-2-methylpyridine] came in with a flash point of 74.00 °C.

Turning to `CC1CCC(C(C)C)C(O)C1` (configuration not stated) [5-methyl-2-propan-2-ylcyclohexan-1-ol], the flash point was 91.00 °C.

`Cc1ccc(C(C)C)c(O)c1` [5-methyl-2-propan-2-ylphenol] registered a flash point of 110.00 °C.

Consider `CCC(=O)CC(C)CC` (configuration not stated) [5-methylheptan-3-one], for which the flash point is 43.00 °C.

As for `CC1CCC(=O)O1` (configuration not stated) [5-methyloxolan-2-one], the flash point stood at 81.00 °C.

Compound `CC(=O)CCC=C(C)C` [6-methylhept-5-en-2-one] came in with a flash point of 57.00 °C.

In turn, `CC(C)CCCCCO` [6-methylheptan-1-ol] yielded a flash point of 82.00 °C.

For the compound `CC(C)CCCCCOC(=O)C(C)Oc1cc(Cl)c(Cl)cc1Cl` (configuration not stated) [6-methylheptyl 2-(2,4,5-trichlorophenoxy)propanoate], the flash point worked out at 207.00 °C.

`CC(C)CCCCCOC(=O)COc1ccc(Cl)cc1Cl` [6-methylheptyl 2-(2,4-dichlorophenoxy)acetate] had a flash point of 48.00 °C.

Compound `C=CC(=O)OCCCCCC(C)C` [6-methylheptyl prop-2-enoate] showed a flash point of 91.00 °C.

Compound `CC(C)(C)CCCCCC(=O)O` [7,7-dimethyloctanoic acid] gave a flash point of 94.00 °C.

Compound `C=CC(=C)CCC=C(C)C` [7-methyl-3-methylideneocta-1,6-diene] came in with a flash point of 39.00 °C.

`CC(C)CCCCCCCO` [8-methylnonan-1-ol] came in with a flash point of 104.00 °C.

Compound `CC(C)CCCCCCC=O` [8-methylnonanal] showed a flash point of 85.00 °C.

With `C=CC(=O)OCCCCCCCC(C)C` [8-methylnonyl prop-2-enoate], the flash point was 116.00 °C.

Compound `c1ccc2c(c1)[nH]c1ccccc12` [9H-carbazole] registered a flash point of 220.00 °C.

Compound `c1ccc2c(c1)Cc1ccccc1-2` [9H-fluorene] yielded a flash point of 151.00 °C.

`c1ccc2c(c1)Nc1ccccc1S2` [10H-phenothiazine]: the flash point turned out to be 202.00 °C.

Regarding `CC(=O)OC1CC2CCC1(C)C2(C)C` (configuration not stated) [(1,7,7-trimethyl-2-bicyclo[2.2.1]heptanyl) acetate], the flash point turned out to be 88.00 °C.

In turn, `CC1(C)C2CC[C@@]1(C)C(=O)C2` [(1R)-1,7,7-trimethylbicyclo[2.2.1]heptan-2-one] yielded a flash point of 64.00 °C.

Turning to `CC1(C)[C@@H]2CC[C@@]1(C)C(=O)C2` [(1R,4R)-1,7,7-trimethylbicyclo[2.2.1]heptan-2-one], the flash point is 47.00 °C.

Compound `CC1(C)[C@@H]2CC[C@]1(C)[C@H](O)C2` [(1S,2R,4R)-1,7,7-trimethylbicyclo[2.2.1]heptan-2-ol] yielded a flash point of 66.00 °C.

Consider `CC(=O)OC1CC(C)OC(C)O1` (configuration not stated) [(2,6-dimethyl-1,3-dioxan-4-yl) acetate], for which the flash point stood at 61.00 °C.

For the compound `O=[N+]([O-])C(Br)=Cc1ccccc1` [(2-bromo-2-nitroethenyl)benzene], the flash point is 54.00 °C.

The compound `COc1ccc(C(=O)c2ccccc2)c(O)c1` [(2-hydroxy-4-methoxyphenyl)-phenylmethanone] gave a flash point of 100.00 °C.

Turning to `C=C(C)C1CC=C(C)C(OC(C)=O)C1` (configuration not stated) [(2-methyl-5-prop-1-en-2-ylcyclohex-2-en-1-yl) acetate], the flash point worked out at 97.00 °C.

`Cc1ccccc1OP(=O)(Oc1ccccc1)Oc1ccccc1` [(2-methylphenyl) diphenyl phosphate] gave a flash point of 232.00 °C.

The compound `CC(C)=CCC/C(C)=C/CO` [(2E)-3,7-dimethylocta-2,6-dien-1-ol] showed a flash point of 108.00 °C.

On to `C=CC/C=C/C` [(4E)-hexa-1,4-diene], for which the flash point is -21.00 °C.

Take `C=C(C)[C@H]1CC=C(C)C(=O)C1` [(5S)-2-methyl-5-prop-1-en-2-ylcyclohex-2-en-1-one]: the flash point came out at 89.00 °C.

`Cl/C=C/CCl` [(E)-1,3-dichloroprop-1-ene]: the flash point amounted to 35.00 °C.

`Cc1cn(/C=C/C=O)c(=O)[nH]c1=O` [(E)-3-(5-methyl-2,4-dioxopyrimidin-1-yl)prop-2-enal]: the flash point came out at 207.00 °C.

The compound `C/C=C/C=O` [(E)-but-2-enal] had a flash point of 13.00 °C.

On to `CC/C=C/C#N` [(E)-pent-2-enenitrile], for which the flash point worked out at 23.00 °C.

With `C/C=C/CC#N` [(E)-pent-3-enenitrile], the flash point stood at 38.00 °C.

As to `CSC(C)(C)/C=N/O` [(NE)-N-(2-methyl-2-methylsulfanylpropylidene)hydroxylamine], the flash point was 118.00 °C.

For the compound `O=C1C=CCO1` [InChI=1S/C4H4O2/c5-4-2-1-3-6-4/h1-2H,3H2], the flash point is 101.00 °C.

The compound `CCN(CC)CCCN` [N',N'-diethylpropane-1,3-diamine] registered a flash point of 59.00 °C.

The compound `CN(C)CCCN` [N',N'-dimethylpropane-1,3-diamine] registered a flash point of 16.00 °C.

`NCCCNCCCN` [N'-(3-aminopropyl)propane-1,3-diamine]: the flash point was determined as 79.00 °C.

Turning to `NCCNCCNCCN` [N'-[2-(2-aminoethylamino)ethyl]ethane-1,2-diamine], the flash point came to 135.00 °C.

`Cc1ccc(N(C)C)cc1` [N,N,4-trimethylaniline] displayed a flash point of 76.00 °C.

The compound `CCN(CC)C(=O)c1cccc(C)c1` [N,N-diethyl-3-methylbenzamide] returned a flash point of 155.00 °C.

As for `CCN(CC)c1ccccc1` [N,N-diethylaniline], the flash point came to 85.00 °C.

As for `CCN(CC)CC` [N,N-diethylethanamine], the flash point is -7.00 °C.

In the case of `CCN(O)CC` [N,N-diethylhydroxylamine], the flash point was 45.00 °C.

Values taken from a flash point compilation (Sun et al. 2020).
